{
  "source": "patent US20130202649A1",
  "about": "“ACTIVATION OF INNATE IMMUNITY FOR NUCLEAR REPROGRAMMING OF SOMATIC CELLS” (The Board of Trustees of the Leland Stanford Junior …, priority 2012, published 2013)",
  "key": {"[1]": {"system": "human foreskin fibroblasts (BJ)", "assay": "Transdifferentiation of human fibroblasts to endothelial cells (FACS)", "type": "cell-based", "settings": "Poly I:C 30 ng/ml", "protocol": "FIG. 21: Direct reprogramming of human fibroblasts to functional endothelial cells via innate immunity activation and microenvironmental cues: (A) Protocol for direct reprogramming of human BJ fibroblasts to endothelial cells. The figure describes the time course and sequential treatments of different medias: Human fibroblasts were treated with Poly I:C (30 ng/ml) for 7 days in differentiation medium I containing DMEM/FBS and 7.5% knockout serum replacement (KSR). Following 7 days, the medium was changed to differentiation medium II containing DMEM/FBS and 10% KSR containing 20 ng/ml BMP4, 50 ng/ml VEGF and 20 ng/ml bFGF. After another 7 days, the medium was replaced with endothelial medium (EGM2) containing 50 ng/ml VEGF, 20 ng/ml bFGF and 0.1 mM 8-Br-cAMP for another 14 days. The medium was changed every 2-3 days. […] (B) Fluorescent activated cell sorting (FACs) plot of data obtained using CD31+ antibody to quantitate iECs. […]\nInnate immunity (TLR3 signaling) enables efficient transdifferentiation of fibroblasts to ECs: To determine whether TLR3 signaling was necessary for efficient transdifferentiation of human fibroblasts, we assessed direct differentiation in BJ fibroblasts previously treated with scrambled shRNA or shRNA to knockdown (KD) the expression of TLR3. […]"}, "human fibroblasts": {"system": "human fibroblasts", "assay": "CPP-induced generation of human iPSCs", "type": "cell-based", "description": "It is known that persistent expression (about 2 weeks) of the reprogramming factors is required using viral vectors to generate mouse iPSCs. […] We hypothesized that activation of the TLR3 pathway might facilitate epigenetic alterations required for full transcriptional effect of the CPPs. We also attempted to mimic the biphasic effect of the reprogramming factors introduced as viral vectors by reducing the dose of CPPs after 6 days. Accordingly, we exposed human fibroblasts to the four CPP-transcription factors (Oct4-R11, Sox2-R11, Klf4-R11 and cMyc-R11) (at a dose of 200 nM for days 1-6, and a dose of 100 nM for days 7-21), in the presence or absence of poly I:C (300 ng/ml) for days 1-6 (FIG. 7A). The cultures were transferred to feeder cells (inactivated MEFs) at day 26. In the presence of poly I:C, Oct4 expression was accelerated (FIG. 7B). […] Small colonies were observed by day 21 and ES like colonies appeared by day 30, many of which expressed TRA-1-81 as indicated by live cell staining. By contrast, in human fibroblasts not exposed to poly I:C, colonies were not observed until day 30 days. By day 40, colony number was increased by more than 4-fold in cells exposed to poly I:C (FIG. 7C). Application of our insights regarding the role of TLR3 signaling in nuclear reprogramming permitted us to successfully reprogram human fibroblasts to pluripotency using CPPs.\nProtein-iPSCs: Recombinant Oct4, Sox2, Klf4, and cMyc human proteins (CPPs) contained an eleven-arginine membrane penetration domain at the C terminus were obtained from Stemgent. Human fibroblasts were treated with CPPs encoding the reprogramming factors (CPP-Oct4, CPP-Sox2, CPP-Klf4 and CPP-Myc) daily for 6 days with 200 nM CPPs, followed by daily treatments of 100 nM CPPs from day 7 to day 20. Poly I:C (300 ng/ml) or vehicle was added to the cell simultaneously only up to day 6. The cells were passed onto MEF feeders at day 30. After 20 days of CPP treatments, wells were closely scanned for colonies.\nImmunostaining of Live Cells For the detection of SSEA-1 or TRA-1-81 in live cells, the primary Ab (anti-mouse SSEA-1, antihuman TRA-1-81, Stemgent) was diluted to a final concentration of 2.5 to 5 μg/ml in fresh cell culture medium and incubated with cells for 30 minutes at 37° C. and 5% CO2. After gentle washing the cells were examined under a fluorescent microscope."}},
  "data": [
    {"substance": "Polyinosinicpolycytidylic acid [Poly I:C]", "values": [
      {"measurement": "transdifferentiation of fibroblasts to iECs", "setting": "[1]", "result": "significantly enhanced"},
      {"measurement": "cells expressed CD31", "setting": "[1]; 28 days of differentiation, FACS, relative to the vehicle control", "result": "Approximately 2%"},
      {"measurement": "increase in colony number", "setting": "human fibroblasts; day 40, cells exposed to poly I:C versus not", "result": "more than 4 fold"},
      {"measurement": "Oct4 expression", "setting": "human fibroblasts; four CPPs 200 nM days 1-6, 100 nM days 7-21, poly I:C 300 ng/ml days 1-6", "result": "accelerated"},
      {"measurement": "iPSC generation", "setting": "human fibroblasts; four CPPs plus poly I:C 300 ng/ml days 1-6", "result": "accelerated iPSC generation"},
      {"measurement": "small colonies observed by", "setting": "human fibroblasts; four CPPs plus poly I:C 300 ng/ml days 1-6, without poly I:C not until day 30", "result": "≤ 21", "unit": "days"}
    ]}
  ]
}
